According to EP0937723A1, “Novel sulfonamides, process for their preparation and medicaments containing them” (Roche Diagnostics GmbH, priority 1998, dated 1999):
Counter-ions that a name gives are not always drawn.

Legend:
[1] = molecular target: T1, bovines pankreatisches Trypsin (Bos taurus, UniProt P00760); experiment: Inhibition constant Ki, chromogenic substrate S-2238, photometric at 405 nm; type: biochemical, bovin; conditions: pH 7.5, 25°C, 0.1 M phosphate buffer, 0.2 M NaCl
T1 construct: bovines pankreatisches Trypsin (Sigma); purchased Sigma; host or cells: bovine pancreas
T1 sequence (P00760 24-246): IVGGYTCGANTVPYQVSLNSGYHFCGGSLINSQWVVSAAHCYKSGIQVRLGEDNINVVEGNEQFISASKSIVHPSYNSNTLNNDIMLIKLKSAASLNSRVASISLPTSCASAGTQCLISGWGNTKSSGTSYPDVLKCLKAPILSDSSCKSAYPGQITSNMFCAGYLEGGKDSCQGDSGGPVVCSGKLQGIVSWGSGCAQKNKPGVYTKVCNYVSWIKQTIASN
Protocol: (§1) Die kinetischen Messungen wurden in 0.2 M Kochsalz und 0.5 % Polyethylenglycol 6000 enthaltendem 0.1 M Phosphatpuffer (Herstellung siehe unten) bei pH 7.5 und 25°C in Polystyrol-Halbmikroküvetten in einem Gesamtvolumen von 1 ml durchgeführt . Die Reaktionen wurden durch Zugabe von Enzym zu vorinkubierten Lösungen, die entweder Dimethylsulfoxid (Kontrolle) oder Lösungen der Testsubstanz in DMSO (Inhibitor-Stocklösungen: 10 mM in DMSO) enthielten, gestartet. Die Zunahme der Extinktion bei 405 nm als Folge der Freisetzung von 4-Nitroanilin aus dem Substrat wurde photometrisch über einen Zeitraum von 12 Minuten verfolgt. Im Abstand von 20 Sekunden wurden Meßwerte (Extinktion vs. Zeit) ermittelt und diese Daten per Computer gespeichert.
(§2) Zur Bestimmung der Inhibitionskonstanten Ki wurde wie folgt vorgegangen: Die Geschwindigkeiten V0 (Extinktionsänderung pro Sekunde; Messungen ohne Inhibitor) und Vi (Extinktionsänderung pro Sekunde; Messungen mit Inhibitor) wurden durch lineare Regression bestimmt, wobei nur die Meßpunkte berücksichtigt wurden, bei der sich die Substratkonzentration um weniger als 15% verringerte. Aus einer Meßreihe (konstante Inhibitorkonzentration, variable Substratkonzentrationen) bestimmte man KM und VMAX durch nichtlinearen Fit auf die Gleichung V =(Vmax *[S])/([S]+KM) [formula] […]

Humanes α-Thrombin = molecular target: T2, Humanes α-Thrombin (Homo sapiens, UniProt P00734); experiment: as above; type: biochemical; conditions: pH 7.5, 25°C, 0.1 M phosphate buffer, 0.2 M NaCl
T2 construct: Humanes α-Thrombin; purchased Sigma
Protocol: as §1, §2

humanem Faktor Xa = molecular target: T3, humanem Faktor Xa (Homo sapiens, UniProt P00742); experiment: Inhibition constant Ki, chromogenic substrate Chromozym X, photometric at 405 nm; type: biochemical; conditions: pH 7.5, 25°C, 0.1 M phosphate buffer, 0.2 M NaCl; read-out: Ki (fXa)
T3 construct: humanem Faktor Xa; purchased Boehringer Mannheim GmbH
Protocol: as §1, §2

Pferdethrombin = experiment: Thrombin time in citrated plasma with thrombin reagent, ball coagulometer; type: biochemical, Pferd; conditions: 500 µM final concentration; time as difference to control (control ca. 24 s)
Protocol: (§3) Neun Teile frisches Blut gesunder Spender werden mit einem Teil Natriumcitratlösung (0.11 Mol/l) gemischt und bei ca. 3000 U/min 10 Minuten bei Raumtemperatur zentrifügiert. Das Plasma wird abpipettiert und kann bei Raumtemperatur ca. 8 h aufbewahrt werden.
200 µl Citratplasma werden in einem Kugelkoagulometer (KC10 der Fa. Amelung) 2 Minuten bei 37°C inkubiert. Zu 190 µl vortemperiertem Thrombin-Reagenz (Boehringer Mannheim GmbH; enthält ca. 3 U/ml Pferdethrombin und 0.0125 M Ca^++ gibt man 10 µl Dimethylsulfoxid (DMSO) oder eine Lösung der Wirksubstanz in DMSO. Mit Zugabe dieser 200 µl Lösung zum Plasma wird eine Stoppuhr gestartet und der Zeitpunkt bis zum Eintritt der Gerinnung bestimmt. Die Thrombinzeit beträgt bei den Kontrollmessungen ca. 24 Sekunden und wird durch Wirksubstanzen verlängert. Sofern bei den Messungen nach 5 Minuten keine Gerinnung eintrat, wurde der Versuch gestoppt (>300).
In Tabelle 1 sind die gemessenen Thrombinzeiten in Sekunden als Differenz zur Kontrolle angegeben. Die Konzentrationen der Wirksubstanzen betrugen im Endvolumen 500 µM (TT 500).

Citratplasma = experiment: Activated partial thromboplastin time (APTT) in citrated plasma, ball coagulometer; type: biochemical; conditions: time as difference to control (control ca. 28-35 s)
Protocol: as §3
100 µl Citratplasma und 100 µl APTT-Reagenz (Diagnostica Stago / Boehringer Mannheim GmbH; enthält Lyophilisat Cephalin mit mikrokristallinem Kieselguraktivator) werden zusammen mit 10 µl Dimethylsulfoxid (DMSO) oder 10 µl einer Lösung der Wirksubstanz in DMSO in einem Kugelkoagulometer (KC10 der Fa. Amelung) 3 Minuten bei 37°C inkubiert. Mit Zugabe von 100 µl 0.025 M Calciumchlorid-Lösung wird eine Stoppuhr gestartet und der Zeitpunkt bis zum Eintritt der Gerinnung bestimmt. Die APTT beträgt bei den Kontrollmessungen ca. 28 -35 Sekunden und wird durch Wirksubstanzen verlängert. Sofern bei den Messungen nach 5 Minuten keine Gerinnung eintrat, wurde der Versuch gestoppt (>300).
In Tabelle 1 sind die gemessenen APTT-Zeiten in Sekunden als Differenz zur Kontrolle angegeben. Die Konzentrationen der Wirksubstanzen betrugen im Endvolumen 1000 µM (APTT 1000), 100 µM (APTT 100), 10 µM (APTT 10), 1 µM (APTT 1).

T3 sequence (P00742 235-488 limits assumed): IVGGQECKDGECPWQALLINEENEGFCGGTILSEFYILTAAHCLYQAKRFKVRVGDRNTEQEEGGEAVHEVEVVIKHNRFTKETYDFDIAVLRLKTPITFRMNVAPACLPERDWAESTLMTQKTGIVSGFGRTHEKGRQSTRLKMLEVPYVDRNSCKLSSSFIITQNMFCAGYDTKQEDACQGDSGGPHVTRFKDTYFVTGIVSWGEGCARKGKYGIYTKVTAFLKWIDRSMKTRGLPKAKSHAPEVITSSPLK
T3 sequence (P00742 41-179 partner limits assumed): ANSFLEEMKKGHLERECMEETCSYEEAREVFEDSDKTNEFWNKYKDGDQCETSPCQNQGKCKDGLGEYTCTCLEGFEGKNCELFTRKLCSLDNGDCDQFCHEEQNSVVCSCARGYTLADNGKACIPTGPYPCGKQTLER

Work on N=C(N)N1CCC(Oc2ccc(S(=O)(=O)Nc3ccc4c(c3)CN(C(=N)N)CC4)cc2)CC1 [Beispiel 1, 7-[4-(1-Carbamimidoyl-piperidin-4-yloxy)-benzolsulfonylamino]-3,4-dihydro-1H-isochinolin-2-carboxamidin-dihydrochlorid] yielded a Ki [1] of 100 nM, a Ki (Humanes α-Thrombin) of 2000 nM and a Ki (humanem Faktor Xa) of 10 nM. The “TT 500” value (Pferdethrombin) was 40 Sekunden, the “APTT 1” value (Citratplasma; 1 µM final concentration) was 12 Sekunden and the “APTT 10” value (Citratplasma; 10 µM final concentration) was 50 Sekunden. For the same compound, the “APTT 100” value (Citratplasma; 100 µM final concentration) was 140 Sekunden and the “APTT 1000” value (Citratplasma; 1000 µM final concentration, test stopped after 5 min (>300)) was greater than 300 Sekunden.
